This passage reports ED50 results from patent US4064260A, “Anti-inflammatory diarylimidazothiazoles and their corresponding S-oxides” (E. I. Du Pont de Nemours and Company, priority 1976, dated 1977).

The structures appear in SMILES notation.

The test system of assay [1] is Adjuvant-Induced Arthritis in Rats. Briefly: Established Adjuvant-Induced Arthritis in Rats (paw volume). The format is in vivo, Charles River Lewis male rats. The conditions noted are these: 24 h; rat; oral; dosed that day and 6 following days; ED50% decrease from control paw volume (uninjected left hind paw), one day after last dose. How it is done: A standard procedure for detecting and comparing the anti-inflammatory activity of compounds in this series for which there is good correlation with human efficacy is the adjuvant-induced arthritis test in rats.
Established Adjuvant-Induced Arthritis in Rats
Charles River Lewis male rats (130-150 grams) are injected subcutaneously in the plantar area of the right hind paw with 0.1 ml of adjuvant (Difco heat-killed, lyophilized Myobacterium butyricum suspended in mineral oil 5 mg./ml.). 20 Non-arthritic controls are injected with mineral oil. The animals are held for 2 weeks to allow development of arthritis. Paw volumes (uninjected, left hand paw) are measured and the adjuvant injected rats are culled and distributed to treatment groups of 10 of equal disease severity. Non-arthritic controls are distributed to 2 groups of 10. The rats are given oral doses of compound or PVA-Acacia (10 ml./kg.) on that day and on the 6 following days. One day after the last dose the paw volumes (uninjected, left hind paw) are measured using a Ugo Basile Volume Differential Meter Model 7101. [formula]
Dose-response regression lines of the % decrease are plotted on semi-log paper by visual fit and the ED50% decrease from control paw volume is determined by inspection.

For assay [2], the system named is phenylquinone writhing in mice. The assay can be described thus: phenylquinone writhing test in mice (analgesic). The format is in vivo, Carworth CF-lS male mice. As to conditions: po; mouse; intubated in 0.5% methylcellulose; phenylquinone 1.25 mg/kg i.p. 30 min later; observed 30-40 min after antagonist. The method, then: An equally reliable test that is used for testing analgesic activity of compounds is the phenylquinone writhing test in mice.
Writhing was caused in mice by the intraperitoneal injection of phenyl-p-benzoquinone (Siegmund, E., Cadmus, R., Lu, G., Proc. Soc. Exp. Biol, and Med., 95, 729, 1957).
Groups of 10 or more Carworth CF-lS male mice, 18-21 g each, were fasted 17-21 hours and were intubated with the writhing antagonist at several dose levels in 0.5% methylcellulose. 30 Minutes later the mice were challenged with phenylquinone (1.25 mg./kg., i.p., dissolved in ethanol and diluted to 5% ethanol with distilled water at 40° C.). […] ED50' s were obtained by the Litchfield and Wilcoxon Method (Litchfield, J. T. and Wilcoxon, F., J.P.E.T., 96, 99 1949) and the Weil moving average method (Weil, C., Biometrics, 8 ,249 1952). Peak time studies were also done with some of these compounds and their peak time ED50' s were recorded.
(In general: An intraperitoneal irritant provokes the stretching counted in writhing tests.)

Broadly, the ED50 is the midpoint of the dose-response relation. For the molecule `COc1ccc(-c2nc3n(c2-c2ccc(OC)cc2)C(F)C(F)(F)S3)cc1` (stereo not shown) [0 F F H F, 2,3-Dihydro-2,2,3-trifluoro-5,6-bis(p-methoxyphenyl)imidazo-[2,1-b]thiazole], the ED50 in assay [1] is 11 mg/kg.
For `COc1ccc(-c2nc3n(c2-c2ccc(OC)cc2)CCS3)cc1` [0 H H H H, 2,3-Dihydro-5,6-bis(p-methoxyphenyl)imidazo[2,1-b]thiazole], the 50% effective dose (ED50) is 5.5 mg/kg in assay [1] and 64 mg/kg in assay [2].
As to `COc1ccc(-c2nc3n(c2-c2ccc(OC)cc2)CC[S+]3[O-])cc1` (stereo not shown) [1 H H H H, 2,3-Dihydro-5,6-bis(p-methoxyphenyl)imidazo[2,1-b]thiazole S-oxide], the ED50 in assay [1] was 7.4 mg/kg; in assay [2] it was 8.7 mg/kg.
Turning to `COc1ccc(-c2nc3n(c2-c2ccc(OC)cc2)CCS3(=O)=O)cc1` [2 H H H H, 2,3-Dihydro-5,6-bis(p-methoxyphenyl)imidazo[2,1-b]thiazole S,S-dioxide], the values for the ED50 in assay [1] and in assay [2] were 8 mg/kg and above 130 mg/kg, respectively.
